Tests used:
Assay in all cases: relative viability (nuclei count vs DMSO), 5 days (fraction); higher = more cells survive
IPA-3 = compound: C1=CC=C2C(=C1)C=CC(=C2SSC3=C(C=CC4=CC=CC=C43)O)O [IPA-3]
Summary of the method: (§1)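 Viability was defined as treated-well nuclei divided by vehicle-well nuclei, with the median taken over replicate plates. Cells from lung cancer lines sat overnight at 37 °C in 1536-well plates, received five √10-spaced library-drug doses by pinning on vehicle-anchored plates, and grew 5 days without medium change before one-step fixation, permeabilisation and Hoechst staining, 4× imaging and MetaXpress nuclear counts. Only plates with control CV under 25% and at least one doubling were kept.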

Doramapimod = compound: Cc1ccc(-n2nc(C(C)(C)C)cc2NC(=O)Nc2ccc(OCCN3CCOCC3)c3ccccc23)cc1 [Doramapimod]
Summary of the method: as §1

RAF265 = compound: Cn1c(Nc2ccc(C(F)(F)F)cc2)nc2cc(Oc3ccnc(-c4ncc(C(F)(F)F)[nH]4)c3)ccc21 [RAF265]
Summary of the method: as §1

Doramapimod + Crizotinib = compound: Cc1ccc(-n2nc(C(C)(C)C)cc2NC(=O)Nc2ccc(OCCN3CCOCC3)c3ccccc23)cc1 [Doramapimod] + C[C@@H](Oc1cc(-c2cnn(C3CCNCC3)c2)cnc1N)c1c(Cl)ccc(F)c1Cl [Crizotinib] (partner 1 µM)
Summary of the method: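 Relative viability is defined as nuclei in treated wells over nuclei in vehicle wells. Duplicate plates were run and medians reported. Lung cancer cell lines in 1536-well plates were dosed by pin tool one day after seeding, with one drug or with a fixed anchor-drug dose plus five library-drug doses (not always all listed) in √10 steps, and nuclei were counted after 5 days.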

Cell Line | relative viability (IPA-3; 0.2 µM) | relative viability (IPA-3; 0.6325 µM) | relative viability (IPA-3; 2 µM) | relative viability (IPA-3; 6.325 µM) | relative viability (IPA-3; 20 µM) | relative viability (Doramapimod; 0.02 µM) | relative viability (Doramapimod; 0.06325 µM) | relative viability (Doramapimod; 0.2 µM) | relative viability (Doramapimod; 0.6325 µM) | relative viability (Doramapimod; 2 µM) | relative viability (RAF265; 0.01 µM) | relative viability (RAF265; 0.03162 µM) | relative viability (RAF265; 0.1 µM) | relative viability (RAF265; 0.3162 µM) | relative viability (RAF265; 1 µM) | relative viability (Doramapimod + Crizotinib; first compound 0.02 µM) | relative viability (Doramapimod + Crizotinib; first compound 0.06325 µM) | relative viability (Doramapimod + Crizotinib; first compound 0.2 µM) | relative viability (Doramapimod + Crizotinib; first compound 0.6325 µM) | relative viability (Doramapimod + Crizotinib; first compound 2 µM)
NCI-H727 | 0.929 | 0.938 | 0.816 | 0.901 | 0.899 | 0.971 | 0.972 | 1.05 | 0.885 | 0.787 | 0.932 | 0.908 | 0.834 | 0.7 | 0.62 | 0.973 | 1.06 | 0.862 | 0.643 | 0.759
NCI-H838 | 1.08 | 0.942 | 0.972 | 0.969 | 1.1 | 0.993 | 1.02 | 1.06 | 1.05 | 0.949 | 0.981 | 1 | 0.973 | 0.93 | 0.773 | 0.847 | 0.807 | 0.872 | 1.01 | 0.799
NCI-H1299 | 1.1 | 0.995 | 1.02 | 0.94 | 0.98 | 1.04 | 1.02 | 1.02 | 1.05 | 0.967 | 1.08 | 0.97 | 0.961 | 0.793 | 0.616 | 0.963 | 0.945 | 0.936 | 1 | 0.902
NCI-H1355 | 1.11 | 0.98 | 0.988 | 0.965 | 0.98 | 1.02 | 0.984 | 0.939 | 1.03 | 0.86 | 1 | 0.943 | 0.895 | 0.72 | 0.441 | 0.981 | 1.08 | 1.11 | 1.04 | 1.03
NCI-H1437 | 1.13 | 1.01 | 0.994 | 1.04 | 1.08 | 1.05 | 1.05 | 0.985 | 1.07 | 0.948 | 1.02 | 0.99 | 1.01 | 1.03 | 0.954 | 0.897 | 0.943 | 0.868 | 1 | 0.915
NCI-H1563 | 1.09 | 0.959 | 1.01 | 1.1 | 1.17 | 0.996 | 0.996 | 1.11 | 1.28 | 1.06 | 1.06 | 1.05 | 1.01 | 1.03 | 0.932 | 0.977 | 0.917 | 0.859 | 0.893 | 0.612
NCI-H1650 | 1.13 | 0.787 | 0.931 | 1.01 | 1 | 0.998 | 0.99 | 1.17 | 1.2 | 0.966 | 1.09 | 0.904 | 1.11 | 0.75 | 0.765 | 0.969 | 1.02 | 1.13 | 1.04 | 1.02
NCI-H1651 | 1.18 | 0.952 | 1.03 | 1.02 | 1.08 | 0.938 | 0.934 | 1.03 | 1.1 | 0.968 | 1 | 1 | 0.961 | 0.901 | 0.785 | 0.847 | 0.871 | 0.875 | 0.89 | 0.851
NCI-H1666 | 1.15 | 0.978 | 1.02 | 1.08 | 1.12 | 1.06 | 1.03 | 1 | 1.11 | 1.01 | 1.07 | 1.01 | 1.01 | 1.01 | 0.795 | 1.21 | 0.907 | 0.959 | 1.08 | 0.935
NCI-H1703 | 1.27 | 0.86 | 1.02 | 0.935 | 1.04 | 0.923 | 0.918 | 0.876 | 1.11 | 0.612 | 0.783 | 0.792 | 0.831 | 0.652 | 0.352 | 0.614 | 0.576 | 0.519 | 0.783 | 0.493
NCI-H1734 | 1.22 | 1 | 0.972 | 0.992 | 0.908 | 0.949 | 0.855 | 0.868 | 1.02 | 0.769 | 1.05 | 0.832 | 0.87 | 0.738 | 0.521 | 0.665 | 0.639 | 0.589 | 0.659 | 0.495
NCI-H1755 | 1.08 | 0.922 | 1.04 | 1.01 | 1.12 | 0.966 | 0.958 | 1.03 | 0.988 | 0.997 | 1.1 | 1.01 | 0.984 | 0.889 | 0.638 | 0.886 | 0.905 | 0.788 | 0.768 | 0.833
NCI-H1792 | 1.32 | 0.794 | 0.952 | 0.809 | 1.08 | 0.954 | 0.869 | 0.971 | 0.913 | 0.715 | 0.893 | 0.73 | 0.648 | 0.246 | 0.249 | 0.762 | 1.06 | 1.07 | 1.04 | 0.971

Source: the supplement of paper PMC10307832
